Laboratory results as given in PubChem BioAssay (NCI).
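Where inhibition never reached the appropriate level, the endpoint shown equals the highest concentration tested. Otherwise, values were interpolated linearly from a five-concentration, 48-hour dose response in 96-well plates. At the GI50, growth is halved. At the TGI there is no net growth.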

How the values were obtained:
Assay in all cases: inhibition of tumour cell growth, NCI panel, 48 h
EKVX NSCLC = test system: EKVX NSCLC
HCT-116 colon = test system: HCT-116 colon
HOP-92 NSCLC = test system: HOP-92 NSCLC
K-562 leukemia = test system: K-562 leukemia
KM12 colon = test system: KM12 colon
M14 melanoma = test system: M14 melanoma
NCI-H23 lung = test system: NCI-H23 lung
NCI-H460 lung = test system: NCI-H460 lung
OVCAR-5 ovarian = test system: OVCAR-5 ovarian
OVCAR-8 ovarian = test system: OVCAR-8 ovarian

Row | Structure (SMILES) | GI50 (EKVX NSCLC) | TGI (EKVX NSCLC) | GI50 (HCT-116 colon) | TGI (HCT-116 colon) | GI50 (HOP-92 NSCLC) | TGI (HOP-92 NSCLC) | GI50 (K-562 leukemia) | TGI (K-562 leukemia) | GI50 (KM12 colon) | TGI (KM12 colon) | GI50 (M14 melanoma) | TGI (M14 melanoma) | GI50 (NCI-H23 lung) | TGI (NCI-H23 lung) | GI50 (NCI-H460 lung) | TGI (NCI-H460 lung) | GI50 (OVCAR-5 ovarian) | TGI (OVCAR-5 ovarian) | GI50 (OVCAR-8 ovarian) | TGI (OVCAR-8 ovarian)
1 | Cc1cnc(Nc2ccc(N3CCN(C)CC3)cc2)nc1Nc1ccc(Cl)c(NS(=O)(=O)C(C)(C)C)c1 | 0.311 µM | 4.4 µM | 0.0917 µM | 2.73 µM | 0.17 µM | 1.59 µM | 0.245 µM | 7.74 µM | 0.0943 µM | 5.39 µM | 0.112 µM | 1.78 µM | 0.379 µM | 6.55 µM | 0.267 µM | 10.3 µM | 0.219 µM | 13.4 µM | 0.652 µM | 8.1 µM
2 | O=C(Nc1cc(Oc2cc(F)c(NC(=O)C3(C(=O)Nc4ccc(F)cc4)CC3)cc2F)ccn1)C1CC1 | 2.42 µM | 5.51 µM | 2.27 µM | > 100 µM | 0.59 µM | 5.86 µM | 1.9 µM | > 100 µM |  | 7.42 µM | 1.53 µM | 5.23 µM | 1.31 µM | 6.02 µM | 3.27 µM | > 34.7 µM | 3.12 µM | > 100 µM | 3.25 µM | > 31.6 µM
3 | COC1C2c3cc4c(cc3CC(C#N)(c3ccccc32)N1C(=O)c1ccccc1)OCO4 (centres undefined) |  | > 100 µM |  | > 100 µM |  | > 100 µM |  | > 100 µM |  | > 100 µM |  | > 100 µM |  | > 100 µM |  | > 100 µM |  | > 100 µM |  | > 100 µM
4 | CCN1C[C@]2(COC)[C@H](O)C[C@H](OC)[C@]34C1[C@H]([C@H](OC)[C@H]23)[C@]1(OC(C)=O)[C@H]2[C@@H](OC(=O)c3ccccc3)[C@](O)(C[C@H]24)[C@@H](OC)[C@@H]1O |  | > 100 µM |  | > 100 µM |  | > 100 µM |  | > 100 µM |  | > 100 µM |  | > 100 µM |  | > 100 µM |  | > 100 µM |  | > 100 µM |  | > 100 µM
5 | NC(=Nc1ccc(N)cc1)C(N)=Nc1ccc(N)cc1 | > 100 µM | > 100 µM | 92.5 µM | > 100 µM | > 100 µM | > 100 µM | 81.8 µM | > 100 µM | 61 µM | > 100 µM | > 100 µM | > 100 µM | > 100 µM | > 100 µM | > 100 µM | > 100 µM | > 100 µM | > 100 µM | 69.1 µM | > 100 µM
6 | O=c1oc2ccc(-c3ccc(F)cc3F)cc2c(=O)n1-c1ccc(Cl)c(C(F)(F)F)c1 | 2.18 µM | 7.54 µM | 1.75 µM | 3.49 µM | 1.58 µM | 5.39 µM | 2.38 µM | > 100 µM | 2.36 µM | 5.85 µM | 2.45 µM | 6.79 µM | 1.83 µM | 4.59 µM | 2.96 µM | > 100 µM | 4.31 µM | > 100 µM | 2.99 µM | > 100 µM
7 | C/C=C/COC(=O)CO[N+](=O)[O-] |  | > 100 µM |  | > 100 µM |  | > 100 µM |  | > 100 µM |  | > 100 µM |  | > 100 µM |  | > 100 µM |  | > 100 µM |  | > 100 µM |  | > 100 µM
8 | Cn1c(=S)c2[nH]c(SCCN3C(=O)c4ccccc4C3=O)nc2n(C)c1=O |  | > 100 µM |  | > 100 µM |  | > 100 µM |  | > 100 µM |  | > 100 µM |  | > 100 µM |  | > 100 µM |  | > 100 µM |  | > 100 µM |  | > 100 µM
9 | CN(/N=C/c1cccc2cccnc12)c1c([N+](=O)[O-])cc([N+](=O)[O-])cc1[N+](=O)[O-] |  | > 100 µM |  | > 100 µM |  | > 100 µM |  | > 100 µM |  | > 100 µM |  | > 100 µM |  | > 100 µM |  | > 100 µM |  | > 100 µM |  | > 100 µM
10 | CC(=O)c1cc(C(=O)c2ccc3c(c2)Sc2ccccc2N3)c2c(C)cccn12 | 0.476 µM | > 100 µM | 0.27 µM | 10.5 µM | 0.767 µM | 22.6 µM | 0.112 µM | > 100 µM | 0.307 µM | > 100 µM | 0.198 µM | 5.5 µM | 0.611 µM | > 100 µM | 0.213 µM | 4.76 µM | 0.63 µM | > 100 µM | 0.374 µM | > 31.8 µM
11 | Nc1ccccc1C#C/C=C\C#Cc1c(F)c(F)c(F)c(F)c1F | 29.7 µM | 99.1 µM | 16 µM | 31.1 µM | 19.5 µM | 41.4 µM | 16.3 µM | 53.7 µM | 16.2 µM | 37.7 µM | 15 µM | 29.4 µM | 14.7 µM | 32.4 µM | 24.4 µM | > 100 µM | 53.4 µM | > 100 µM | 17.1 µM | 36.7 µM
12 | CCOC(=O)/C=C/C(=O)[C@H](CC(C)C)NC(=O)[C@H](Cc1ccccc1)NC(=O)OCc1ccccc1 | 15.6 µM | 29 µM | 2.87 µM | 9.43 µM | 2.56 µM | 6.99 µM | 2.09 µM | 10.5 µM | 12.2 µM | 27.8 µM | 3.54 µM | 13.2 µM | 11.3 µM | 32.8 µM | 16.2 µM | 38.2 µM | 14.3 µM | 31.1 µM | 18.4 µM | 60.4 µM
13 | CN(C)CCNC(=O)c1cccc2ccc(-c3ccc(-c4ccccc4)cc3)nc12 |  | 24.6 µM |  | 3.4 µM |  | 11.8 µM |  | 5.64 µM |  | 5.6 µM |  | 3.48 µM |  | 16.6 µM |  | 2.98 µM |  | 13.9 µM |  | 7.66 µM
14 | O=C1c2ccccc2C(=O)c2c(NCC3CO3)ccc(NCC3CO3)c21 (centres undefined) |  | > 51.5 µM |  | 1.21 µM |  | 38 µM |  | > 100 µM |  | 19.4 µM |  | 2.57 µM |  | 8.71 µM |  | > 53.9 µM |  | > 65.8 µM |  | 2.49 µM
15 | CN1CCN(Cc2ccc3c(NNC(=O)c4ccccc4)nc4cc(F)ccc4n23)CC1 | 0.17 µM | 16 µM | 0.316 µM | 16 µM | 1.12 µM | 41.5 µM | 0.376 µM | 21 µM | 0.42 µM | > 96.4 µM | 0.252 µM | 12.9 µM | 0.989 µM | 29.6 µM | 0.195 µM | 11 µM | 0.735 µM | 70.2 µM | 0.372 µM | 46.4 µM
